Source: patent US20060229255A1, “Identification of n-alkylglycine trimers for induction of apoptosis” (priority 2003, published 2006)

Tests used:
cycA-Cdk2 = cycA-Cdk2 (Homo sapiens, UniProt P24941); test: In vitro kinase assay for Cdk2; assay type: biochemical; conditions: 3 μM or 30 μM
Method: We had observed that cycA protein levels and pRb hypophosphorylation decrease in cell extracts of N10-13-10C or N13-13-10C treated cells (FIG. 8). To assess whether these compounds were direct inhibitors of Cdk2 activity, in vitro kinase assays for Cdk2 were performed.
Kinase assays for testing of Cdk2/CycA-E kinase activity. ELISA plates were blocked with 200 μl of blocking solution (PBS containing 1% BSA, 0.02% Tween and 0.02% sodium Azide) overnight at 4° C. Plates were then subsequently washed 3 times, 5 min each with 100 μl of washing solution (PBS containing 0.02% Tween and 0.02% sodium Azide). Plates were then dried during 2-4 h at room temperature. Kinase assay was performed in kinase buffer (Hepes 25 mM pH 7.4 and MgCl2 10 mM) containing 4 μg of histone H1, 30 μM ATP, 2 mM DTT, 0.1 μl of ATP-P^32, 800 nM GST-CDK2, and 800 nM of GST-cyclin A in a final volume of 60 μl. Assays were carried out in the presence or absence of different concentrations of peptide mixtures to be checked. A inhibitory control was performed adding 800 nM of p21 to the reaction media. Mixtures were incubated for 30 min at 37° C. After incubation, 50 μl of each mixture was filtered in nitrocellulose membranes placed in a dot blot apparatus. […] The radioactivity associated to the membranes was detected with a “Phosphor-imager”.

T98 g cells = test: Cell cycle DNA analysis in synchronized cells; assay type: cell-based, human; conditions: 19 h after serum re-addition, 100 μM
Method: Experimentally this finding was substantiated analysing the compounds in a cellular model with synchronized cells. T98 g cells were arrested in G1 phase (82%) by serum starvation in MCDB 105 medium after 72 h. Upon 10% serum re-addition, cells were allowed to re-enter into the cell cycle. More than 50% of the cells were in the S-phase, and only 20% remained in G1 after 19 h of FCS introduction. Addition of N10-13-10C or N13-13-10C to the cultures at the moment of serum addition restrained S-phase entry (FIG. 7. A). Around 40% of the cells were retained in G1. In conclusions both N10-13-10C and N13-13-10C were able to induce a G1 arrest either in asynchronous or in synchronized cell cultures, as determined by cell cycle DNA analysis. In comparison, Olomucine which is a cdk2 inhibitor, retained 80% of the cells in G1. The topoisomerase II inhibitor etoposide treated cells were arrested in S phase of the cell cycle (85% of the cell population).
DNA analysis. Floating and adherent cells treated with the compounds were collected by trypsinization and washed twice with PBS. The cells were permeabilized overnight at −20° C. with ice-cold ethanol 70%. The cells were washed in PBS, adjusted at 0.5×10^6 cells/ml and incubated with 20 μg/ml Propidium Iodide and 2 μl/ml RNase DNase-free for 30 min at 30° C. Cells were maintained overnight at 4° C. and then analysed by flow cytometry. Flow cytometric experiments were carried out using an Epics XL flow cytometer (Coulter Corporation, Hialeah, Fla.). The instrumet was set up with the standard configuration: excitation of the sample was done using an standard 488 nm air-cooled argon-ion laser at 15 mW power. Forward scatter (FSC), side scatter (SSC) and red (620 nm) fluorescence for PI were adquired. Optical alignement was based on optimized signal from […] fluorescent beads (Immunocheck, Epics Division). Time was used as a control of the stability of the instrument. Red fluorescence was projected on a 1024 monoparametrical histogram. Aggregates were excluded gating single cells by their area vs. peak fluorescence signal. DNA analysis (Ploidy analysis) on single fluorescence histograms was done using Multicycle software (Phoenix Flow Systems, San Diego, Calif.).
FIG. 7. […] (A) T98 g cells were synchronized and reinitiated for 19 h with FCS alone or in combination with N10-13-10C (100 μM), N13-13-10C (100 μM), Olomucine (100 μM), etoposide (5 μM) or Taxol (30 nM). Cell cycle profile was assessed by propidium iodide DNA staining and analyzed by flow cytometry. The fraction of cells with G1, S, G2/M DNA content are shown as % of total cell population. (B. and C.) Synchronized T98 g cells were reinitiated with FCS alone or in combination with serial dilutions of N4-13-10C, N5-13-10C, N10-13-10C, N13-13-10C, Olomucine or etoposide for 19 h and labeled with BrdU during the last 2 h. BrdU incorporation was assessed by ELISA using anti-BrdU antibodies. An arbitrary value of 100% was assigned to the densiometric rate of DNA synthesis by untreated cultures and all other values are depicted relative to that reference. The values are means of three (n=3) replicates.

Cdk4/CycD1 = biological target: T1, Cdk4/CycD1 (Homo sapiens, UniProt P11802); test: 33PanQinase Cdk4/CycD1 kinase assay (pRb phosphorylation); assay type: biochemical; conditions: 3 μM or 30 μM
T1 construct: GST; host or cells: Sf9 insect cells, baculovirus
Method: ^33Pan Qinase assays containing cycD, Cdk4 and pRb protein in the presence of 3 μM or 30 μM, N10-13-10C or N13-13-10C, were performed.
To assay Cdk4/CycD1 kinase activity, Cdk4 was expressed in Sf9 insect cells as recombinant GST-fusion protein by means of baculovirus expression system. Kinase assay was performed in 96-well FlashPlates (NEN) in a 50 μl reaction volume using the ^33PanQinase activity assay (ProQinase) and Beckman Coulter/Sagian robotic system. The reaction cocktail was 20 μl of assay buffer (50 mM Hepes-NaOH pH 7.5, 3 mM MgCl2, 3 mM MnCl2, 3 μM Na-orthovanadate, 1 mM DTT, 0.1 μM […]); 1 μg pRb protein; 100 ng enzyme; and 5 μl of test compound in 10% DMSO. The reaction cocktail was incubated at 30° C. for 80 min. The reaction was stopped with 50 μl of 0.2% (v/v) H3PO4, plates were aspirated and washed two times with 0.9% (w/v) NaCl. Incorporation of ^33P was determined with a microplate scintillation counter (Microbeta, Wallac).

T1 sequence (P11802 whole entry): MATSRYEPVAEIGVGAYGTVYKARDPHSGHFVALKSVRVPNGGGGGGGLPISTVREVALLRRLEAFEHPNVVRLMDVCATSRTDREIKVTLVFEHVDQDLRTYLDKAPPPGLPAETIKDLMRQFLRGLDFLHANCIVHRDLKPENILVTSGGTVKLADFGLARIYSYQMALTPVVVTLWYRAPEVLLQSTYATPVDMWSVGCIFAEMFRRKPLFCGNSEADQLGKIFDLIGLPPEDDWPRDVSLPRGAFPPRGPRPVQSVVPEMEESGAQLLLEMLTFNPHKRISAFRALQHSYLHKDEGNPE
T1 sequence (P24385 whole entry partner): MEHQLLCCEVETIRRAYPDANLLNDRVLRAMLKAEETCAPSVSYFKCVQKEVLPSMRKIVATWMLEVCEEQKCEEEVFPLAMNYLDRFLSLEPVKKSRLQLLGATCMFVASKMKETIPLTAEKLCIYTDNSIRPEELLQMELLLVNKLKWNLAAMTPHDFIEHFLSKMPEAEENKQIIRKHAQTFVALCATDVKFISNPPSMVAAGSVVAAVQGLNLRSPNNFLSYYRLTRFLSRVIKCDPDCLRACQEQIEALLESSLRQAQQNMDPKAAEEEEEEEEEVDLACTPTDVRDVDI

Structure (SMILES) | Inhibition of cycA-Cdk2 kinase activity (cycA-Cdk2) | Cells retained in G1 (T98 g cells) | Inhibition of pRb phosphorylation by cycD/Cdk4 (Cdk4/CycD1)
COc1ccc(CCN(CC(=O)N(CCc2ccccc2)CC(N)=O)C(=O)CNCCc2ccccc2)cc1 [N10-13-10C] | Neither of both compounds was able to inhibit | Around 40% | No inhibition
COc1ccc(CCNCC(=O)N(CCc2ccc(OC)cc2)CC(=O)N(CCc2ccccc2)CC(N)=O)cc1 [N13-13-10C] | Neither of both compounds was able to inhibit | Around 40% | No inhibition
